Measurements: publication PMC8630787 (ACS Sensors, 2021)

These compounds were tested against dihydroorotate dehydrogenase (DHODH) (Homo sapiens, UniProt Q02127) (assay: colorimetric DCIP reduction enzyme assay ([…] DHODH, L-DHO, coenzyme Q10)).
Assay type: biochemical

Sequence of dihydroorotate dehydrogenase (DHODH) (Q02127 whole entry): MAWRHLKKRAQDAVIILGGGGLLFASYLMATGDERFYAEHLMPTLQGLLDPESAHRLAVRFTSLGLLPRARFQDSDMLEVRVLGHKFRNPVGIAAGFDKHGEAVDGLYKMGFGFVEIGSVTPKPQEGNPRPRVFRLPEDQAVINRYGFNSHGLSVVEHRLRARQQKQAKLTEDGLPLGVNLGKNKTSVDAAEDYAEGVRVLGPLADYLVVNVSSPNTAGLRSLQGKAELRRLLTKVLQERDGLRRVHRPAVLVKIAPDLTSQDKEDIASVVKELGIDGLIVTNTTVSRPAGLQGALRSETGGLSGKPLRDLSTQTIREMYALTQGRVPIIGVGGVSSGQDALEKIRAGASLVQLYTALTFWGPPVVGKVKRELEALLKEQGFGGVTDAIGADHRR

Structure (SMILES)	IC50 [µM]
C/C(O)=C(\C#N)C(=O)Nc1ccc(OC(F)(F)F)cc1 [CF3O-TF]	0.33
C/C(O)=C(\C#N)C(=O)Nc1ccc(S(F)(F)(F)(F)F)cc1 [SF5-TF]	0.58
C/C(O)=C(\C#N)C(=O)Nc1cc(C(F)(F)F)cc(C(F)(F)F)c1 [di-CF3-TF]	1.32
